Source: patent US8354436B2 (4SC Discovery GmbH, priority 2011, dated 2013)
Read-outs that look alike come from different tables or passages of the source.

Key:
Type in all cases: cell-based
Details in all cases: 48 hours
[1] = test system: PBMC from healthy human donors; test: T cell proliferation assay (PHA-stimulated human PBMC, BrdU ELISA)
Method in brief: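 Proliferation was quantified by BrdU ELISA 48 hours after starting culture of 1×10⁵ human PBMC per well with test compound and 2 μg/ml phytohaemagglutinin. Cells came from healthy donors via Ficoll separation and were kept in RPMI1640 with 10% dialysed heat-inactivated FCS.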

[2] = test system: IL-17FF; test: IL-17FF production by PHA-stimulated human PBMC (human IL-17F ELI-Pair)
Method in brief: (§1)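 Inhibition of PHA-driven (2 μg/ml) cytokine release from human PBMC at 1×10^5 cells/well, 48 h compound exposure. IC50 from semilog titrations.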

[3] = test system: IFN-γ; test: IFN-γ production by PHA-stimulated human PBMC (OptEIA human IFN-g ELISA)
Method in brief: as §1

[4] = PHA-stimulated human PBMC, column D, read-out: IC50 (Tcell proliferation)
[5] = PHA-stimulated human PBMC, column B, read-out: IC50 (IL-17FF)
[6] = PHA-stimulated human PBMC, column C, read-out: IC50 (IFNγ)
[7] = human PBMC, 2 μg/ml PHA, read-out: D: IC50 (Tcell proliferation)
[8] = human PBMC, 2 μg/ml PHA, read-out: B: IC50 (IL-17FF)
[9] = human PBMC, 2 μg/ml PHA, read-out: C: IC50 (IFNγ)

COC(=O)c1c(-c2ccccc2F)noc1-c1cnn(-c2cccc(F)c2)c1C(F)(F)F [Example I-92, methyl 3-(2-fluorophenyl)-5-(1-(3-fluorophenyl)-5-(trifluoromethyl)-1H-pyrazol-4-yl)isoxazole-4-carboxylate]
IC50 [1, 4]: 100 to 1000 nM
IC50 [2, 5]: 100 to 1000 nM
IC50 [3, 6]: 100 to 1000 nM

Fc1ccccc1-n1ncc(-c2onc(-c3c(F)cccc3Cl)c2-c2cnco2)c1C(F)(F)F [Example B-28, 3-(2-chloro-6-fluorophenyl)-5-(1-(2-fluorophenyl)-5-(trifluoromethyl)-1H-pyrazol-4-yl)-4-(oxazol-5-yl)isoxazole]
IC50 [1, 7]: 100 to 1000 nM
IC50 [2, 8]: 100 to 1000 nM
IC50 [3, 9]: 100 to 1000 nM

CNC(=O)c1c(-c2c(Cl)cccc2Cl)noc1-c1cnn(-c2cccc(F)c2)c1C(F)(F)F [Example I-110, 3-(2,6-dichlorophenyl)-5-(1-(3-fluorophenyl)-5-(trifluoromethyl)-1H-pyrazol-4-yl)-N-methylisoxazole-4-carboxamide]
IC50 [1, 4]: 10 to 100 nM
IC50 [2, 5]: 10 to 100 nM
IC50 [3, 6]: 10 to 100 nM

Fc1cccc(Cl)c1-c1noc(-c2cnn(-c3cccc(Cl)c3)c2C(F)(F)F)c1-c1ccoc1 [Example B-7, 3-(2-chloro-6-fluorophenyl)-5-(1-(3-chlorophenyl)-5-(trifluoromethyl)-1H-pyrazol-4-yl)-4-(furan-3-yl)isoxazole]
IC50 [1, 7]: < 10 nM
IC50 [2, 8]: < 10 nM
IC50 [3, 9]: < 10 nM

COC(=O)c1c(-c2c(F)cccc2Cl)noc1-c1cnn(-c2ccc(F)cc2)c1C(F)(F)F [Example I-3, methyl 3-(2-chloro-6-fluorophenyl)-5-(1-(4-fluorophenyl)-5-(trifluoromethyl)-1H-pyrazol-4-yl)isoxazole-4-carboxylate]
IC50 [1, 4]: 10 to 100 nM
IC50 [2, 5]: < 10 nM
IC50 [3, 6]: < 10 nM

COC(=O)c1c(-c2cccc(F)c2)noc1-c1cnn(-c2cccc(F)c2)c1C(F)(F)F [Example I-106, methyl 3-(3-fluorophenyl)-5-(1-(3-fluorophenyl)-5-(trifluoromethyl)-1H-pyrazol-4-yl)isoxazole-4-carboxylate]
IC50 [1, 4]: 1000 to 10000 nM
IC50 [2, 5]: 1000 to 10000 nM
IC50 [3, 6]: 1000 to 10000 nM

CCOC(=O)c1c(-c2ccccc2F)noc1-c1cnn(-c2cccc(F)c2)c1C(F)(F)F [Example I-90, ethyl 3-(2-fluorophenyl)-5-(1-(3-fluorophenyl)-5-(trifluoromethyl)-1H-pyrazol-4-yl)isoxazole-4-carboxylate]
IC50 [1, 4]: 100 to 1000 nM
IC50 [2, 5]: 100 to 1000 nM
IC50 [3, 6]: 10 to 100 nM

COC(=O)c1c(-c2c(Cl)cccc2Cl)noc1-c1cnn(-c2cccc(Cl)c2)c1C(F)(F)F [IB-75, methyl 5-(1-(3-chlorophenyl)-5-(trifluoromethyl)-1H-pyrazol-4-yl)-3-(2,6-dichlorophenyl)isoxazole-4-carboxylate]
IC50 [1, 4]: < 10 nM
IC50 [2, 5]: < 10 nM
IC50 [3, 6]: < 10 nM

CON(C)C(=O)c1c(-c2c(F)cccc2Cl)noc1-c1cnn(-c2ccccc2Cl)c1C(F)(F)F [IB-51, 3-(2-chloro-6-fluorophenyl)-5-(1-(2-chlorophenyl)-5-(trifluoromethyl)-1H-pyrazol-4-yl)-N-methoxy-N-methylisoxazole-4-carboxamide]
IC50 [1, 4]: 1000 to 10000 nM
IC50 [2, 5]: 1000 to 10000 nM
IC50 [3, 6]: 1000 to 10000 nM

CN1CCN(C(=O)c2c(-c3c(F)cccc3Cl)noc2-c2cnn(-c3ccccc3F)c2C(F)(F)F)CC1 [Example I-17, (3-(2-chloro-6-fluorophenyl)-5-(1-(2-fluorophenyl)-5-(trifluoromethyl)-1H-pyrazol-4-yl)isoxazol-4-yl)(4-methylpiperazin-1-yl)methanone]
IC50 [1, 4]: 1000 to 10000 nM
IC50 [2, 5]: 100 to 1000 nM
IC50 [3, 6]: 100 to 1000 nM

Cc1nnc(-c2c(-c3c(F)cccc3Cl)noc2-c2cnn(-c3cccc(Cl)c3)c2C(F)(F)F)s1 [Example B-3, 3-(2-chloro-6-fluorophenyl)-5-(1-(3-chlorophenyl)-5-(trifluoromethyl)-1H-pyrazol-4-yl)-4-(5-methyl-1,3,4-thiadiazol-2-yl)isoxazole]
IC50 [1, 7]: < 10 nM
IC50 [2, 8]: < 10 nM
IC50 [3, 9]: < 10 nM

COC(=O)c1c(-c2c(F)cccc2Cl)noc1-c1cnn(-c2ccccc2F)c1 [Example I-89, Methyl 3-(2-chloro-6-fluorophenyl)-5-[1-(2-fluorophenyl)-1H-pyrazol-4-yl]isoxazole-4-carboxylate]
IC50 [1, 4]: 100 to 1000 nM
IC50 [2, 5]: 10 to 100 nM
IC50 [3, 6]: 100 to 1000 nM

COC(=O)c1c(-c2c(F)cccc2Cl)noc1-c1cnn(-c2cc(Cl)cc(Cl)c2)c1C(F)(F)F [Example I-68, methyl 3-(2-chloro-6-fluorophenyl)-5-(1-(3,5-dichlorophenyl)-5-(trifluoromethyl)-1H-pyrazol-4-yl)isoxazole-4-carboxylate]
IC50 [1, 4]: 10 to 100 nM
IC50 [2, 5]: 10 to 100 nM
IC50 [3, 6]: 10 to 100 nM

CCOC(=O)c1c(-c2c(F)cccc2Cl)noc1-c1cnn(-c2ccccc2F)c1C(F)(F)F [Example I-42, Ethyl 3-(2-chloro-6-fluorophenyl)-5-[1-(2-fluorophenyl)-5-(trifluoromethyl)-1H-pyrazol-4-yl]isoxazole-4-carboxylate]
IC50 [1, 4]: 10 to 100 nM
IC50 [2, 5]: 10 to 100 nM
IC50 [3, 6]: < 10 nM

CCOC(=O)c1c(-c2c(F)cccc2Cl)noc1-c1cnn(CC2CCOCC2)c1C(F)(F)F [IB-81, ethyl 3-(2-chloro-6-fluorophenyl)-5-(1-((tetrahydro-2H-pyran-4-yl)methyl)-5-(trifluoromethyl)-1H-pyrazol-4-yl)isoxazole-4-carboxylate]
IC50 [1, 4]: 100 to 1000 nM
IC50 [2, 5]: 100 to 1000 nM
IC50 [3, 6]: 100 to 1000 nM

COC(=O)c1c(-c2c(F)cccc2Cl)noc1-c1cnn(-c2cccc(NC(C)=O)c2)c1C(F)(F)F [IB-89, 5-(1-(3-acetamidophenyl)-5-(trifluoromethyl)-1H-pyrazol-4-yl)-3-(2-chloro-6-fluorophenyl)isoxazole-4-carboxylate]
IC50 [1, 4]: 100 to 1000 nM
IC50 [2, 5]: 10 to 100 nM
IC50 [3, 6]: 10 to 100 nM

CCOC(=O)c1c(-c2ccccc2F)noc1-c1cnn(-c2cccc(Cl)c2)c1C(F)(F)F [IB-47, ethyl 5-(1-(3-chlorophenyl)-5-(trifluoromethyl)-1H-pyrazol-4-yl)-3-(2-fluorophenyl)isoxazole-4-carboxylate]
IC50 [1, 4]: 10 to 100 nM
IC50 [2, 5]: 10 to 100 nM
IC50 [3, 6]: 10 to 100 nM

O=C(c1c(-c2c(F)cccc2Cl)noc1-c1cnn(-c2cccc(Cl)c2)c1C(F)(F)F)N1CCOCC1 [IB-35, (3-(2-chloro-6-fluorophenyl)-5-(1-(3-chlorophenyl)-5-(trifluoromethyl)-1H-pyrazol-4-yl)isoxazol-4-yl)(morpholino)methanone]
IC50 [1, 4]: 1000 to 10000 nM
IC50 [2, 5]: 100 to 1000 nM
IC50 [3, 6]: 100 to 1000 nM

CCOC(=O)c1c(-c2c(F)cccc2Cl)noc1-c1cnn(-c2cccc([N+](=O)[O-])c2)c1C(F)(F)F [IB-90, ethyl 3-(2-chloro-6-fluorophenyl)-5-(1-(3-nitrophenyl)-5-(trifluoromethyl)-1H-pyrazol-4-yl)isoxazole-4-carboxylate]
IC50 [1, 4]: 10 to 100 nM
IC50 [2, 5]: 10 to 100 nM
IC50 [3, 6]: 10 to 100 nM

CC(C)OC(=O)c1c(-c2c(F)cccc2Cl)noc1-c1cnn(-c2ccncc2)c1C(F)(F)F [IB-82, isopropyl 3-(2-chloro-6-fluorophenyl)-5-(1-(pyridin-4-yl)-5-(trifluoromethyl)-1H-pyrazol-4-yl)isoxazole-4-carboxylate]
IC50 [1, 4]: 10 to 100 nM
IC50 [2, 5]: 10 to 100 nM
IC50 [3, 6]: 10 to 100 nM

CCOC(=O)c1c(-c2c(F)cccc2Cl)noc1-c1cnn(-c2ccccc2NC(C)=O)c1C(F)(F)F [IB-1]
IC50 [1, 4]: 1000 to 10000 nM
IC50 [2, 5]: 1000 to 10000 nM
IC50 [3, 6]: 100 to 1000 nM

NC(=S)c1c(-c2c(F)cccc2Cl)noc1-c1cnn(-c2cccc(Cl)c2)c1C(F)(F)F [Example I-125, 3-(2-chloro-6-fluorophenyl)-5-(1-(3-chlorophenyl)-5-(trifluoromethyl)-1H-pyrazol-4-yl)isoxazole-4-carbothioamide]
IC50 [1, 4]: 1000 to 10000 nM
IC50 [2, 5]: 100 to 1000 nM
IC50 [3, 6]: 100 to 1000 nM

CON(C)C(=O)c1c(-c2c(F)cccc2Cl)noc1-c1cnn(-c2ccccc2F)c1C(F)(F)F [IB-53, 3-(2-chloro-6-fluorophenyl)-5-(1-(2-fluorophenyl)-5-(trifluoromethyl)-1H-pyrazol-4-yl)-N-methoxy-N-methylisoxazole-4-carboxamide]
IC50 [1, 4]: 100 to 1000 nM
IC50 [2, 5]: 100 to 1000 nM
IC50 [3, 6]: 100 to 1000 nM

Fc1cccc(-n2ncc(-c3onc(-c4c(F)cccc4Cl)c3-c3ccsc3)c2C(F)(F)F)c1 [Example 16, 3-(2-chloro-6-fluorophenyl)-5-(1-(3-fluorophenyl)-5-(trifluoromethyl)-1H-pyrazol-4-yl)-4-(thiophen-3-yl)isoxazole]
IC50 [1, 7]: < 10 nM
IC50 [2, 8]: 100 to 1000 nM
IC50 [3, 9]: < 10 nM

O=C(c1c(-c2c(F)cccc2Cl)noc1-c1cnn(-c2ccccc2F)c1C(F)(F)F)N1CCOCC1 [Example I-16, (3-(2-chloro-6-fluorophenyl)-5-(1-(2-fluorophenyl)-5-(trifluoromethyl)-1H-pyrazol-4-yl)isoxazol-4-yl)(morpholino)methanone]
IC50 [1, 4]: 1000 to 10000 nM
IC50 [2, 5]: 100 to 1000 nM
IC50 [3, 6]: 100 to 1000 nM

COc1cccc(Cl)c1-c1noc(-c2cnn(-c3cccnc3)c2C(F)(F)F)c1-c1cnco1 [Example B-31, 3-(2-chloro-6-methoxyphenyl)-4-(oxazol-5-yl)-5-(1-(pyridin-3-yl)-5-(trifluoromethyl)-1H-pyrazol-4-yl)isoxazole]
IC50 [1, 7]: 1000 to 10000 nM
IC50 [2, 8]: 1000 to 10000 nM
IC50 [3, 9]: 100 to 1000 nM
